SMILES strings stand for the structures. Counter-ions that a name gives are not always drawn.

This assay deals with HBsAg. Put plainly: HBsAg assay. Format: cell-based, hepatitis B virus. The note with it: Hepatitis B virus, HepG2.2.15, 144 h, read-out: sAg EC50, μM, HepG2.2.15 cells, day 6. Summed up:
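HepG2.2.15 cells were treated with serially diluted compounds (0.5% DMSO), with medium and compound renewed after 2-3 days. Secreted HBsAg measured at day 6 by chemiluminescence immunoassay; EC50 from dose-response curves. Viability assessed in parallel by CellTiter-Glo.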
The EC50 is the midpoint of the concentration-response curve. For `COCCCOc1cc2c(nc1OC)-c1cc(=O)c(-c3nc(C)no3)cn1[C@H](C(C)C)C2` [Example 111, (S)-6-isopropyl-2-methoxy-3-(3-methoxypropoxy)-9-(3-methyl-1,2,4-oxadiazol-5-yl)-5,6-dihydro-10H-pyrido[1,2-h][1,7]naphthyridin-10-one], the EC50 turned out to be 0.29 µM. On to `COCCCOc1cc2c(nc1OC)-c1cc(=O)c(-c3nc(-c4ccccc4)no3)cn1[C@H](C(C)C)C2` [Example 112, (S)-6-Isopropyl-2-methoxy-3-(3-methoxypropoxy)-9-(3-phenyl-1,2,4-oxadiazol-5-yl)-5,6-dihydro-10H-pyrido[1,2-h][1,7]naphthyridin-10-one], for which the EC50 was determined as 0.87 µM. Consider `COCCCOc1cc2c(nc1OC)-c1cc(=O)c(C#N)cn1[C@H](C(C)C)C2` [Example 113, (S)-6-Isopropyl-2-methoxy-3-(3-methoxypropoxy)-10-oxo-5,10-dihydro-6H-pyrido[1,2-h][1,7]naphthyridine-9-carbonitrile], for which the EC50 came out at 1 µM.

With `COCCCOc1cc2c(cc1Cl)-c1cc(=O)c(-n3nn[nH]c3=O)cn1C(C(C)(C)C)C2` (stereo not drawn) [Example 114, 6-(Tert-butyl)-10-chloro-9-(3-methoxypropoxy)-3-(5-oxo-4,5-dihydro-1H-tetrazol-1-yl)-6,7-dihydro-2H-pyrido [2,1-a]isoquinolin-2-one], the EC50 stood at 3 µM. Take `COCCCOc1cc2c(nc1OC)-c1cc(=O)c(-c3nnn[nH]3)cn1[C@H](C(C)C)C2` [Example 115, (S)-6-Isopropyl-2-methoxy-3-(3-methoxypropoxy)-9-(1H-tetrazol-5-yl)-5,6-dihydro-10H-pyrido[1,2-h][1,7]naphthyridin-10-one]: the EC50 was determined as 0.09 µM. In the case of `COCCCOc1cc2c(nc1OC)-c1cc(=O)c(-c3ncn[nH]3)cn1[C@H](C(C)C)C2` [Example 116, (S)-6-Isopropyl-2-methoxy-3-(3-methoxypropoxy)-9-(1H-1,2,4-triazol-5-yl)-5,6-dihydro-10H-pyrido[1,2-h][1,7]naphthyridin-10-one], the EC50 came out at 0.009 µM. For the compound `COCCCOc1cc2c(nc1OC)-c1cc(=O)c(C(=O)NO)cn1[C@H](C(C)C)C2` [Example 117, (S)—N-Hydroxy-6-isopropyl-2-methoxy-3-(3-methoxypropoxy)-10-oxo-5,10-dihydro-6H-pyrido[1,2-h][1,7]naphthyridine-9-carboxamide], the EC50 was 0.054 µM. In the case of `COCCCOc1cc2c(nc1OC)-c1cc(=O)c(C(=O)NS(C)(=O)=O)cn1[C@H](C(C)C)C2` [Example 118, (S)-6-Isopropyl-2-methoxy-3-(3-methoxypropoxy)-N-(methylsulfonyl)-10-oxo-5,10-dihydro-6H-pyrido[1,2-h][1,7]naphthyridine-9-carboxamide], the EC50 is 0.051 µM. On to `COCCCOc1cc2c(cc1Cl)-c1cc(=O)c(NC(=O)OC(C)(C)C)cn1C(C(C)(C)C)C2` (stereo not drawn) [Example 119, Tert-butyl N-[6-tert-butyl-10-chloro-9-(3-methoxypropoxy)-2-oxo-6H,7H-pyrido[2,1-a]isoquinolin-3-yl]carbamate], for which the concentration for a half-maximal effect (EC50) was determined as 0.14 µM. On to `COCCCOc1cc2c(cc1Cl)-c1cc(=O)c(N)cn1C(C(C)(C)C)C2` (stereo not drawn) [Example 120, 3-Amino-6-tert-butyl-10-chloro-9-(3-methoxypropoxy)-6H,7H-pyrido[2,1-a]isoquinolin-2-one hydrochloride], for which the EC50 worked out at 3.9 µM. Regarding `COCCCOc1cc2c(cc1Cl)-c1cc(=O)c(NC(C)=O)cn1C(C(C)(C)C)C2` (stereo not drawn) [Example 121, N-[6-Tert-butyl-10-chloro-9-(3-methoxypropoxy)-2-oxo-6H,7H-pyrido[2,1-a]isoquinolin-3-yl]acetamide], the EC50 was determined as 8.6 µM. The value for `COCCCOc1cc2c(cc1Cl)-c1cc(=O)c(NC(=O)OC)cn1C(C(C)(C)C)C2` (stereo not drawn) [Example 122, Methyl N-[6-tert-butyl-10-chloro-9-(3-methoxypropoxy)-2-oxo-6H,7H-pyrido[2,1-a]isoquinolin-3-yl]carbamate] was 17 µM.

(Values after US11013726B2 (Arbutus Biopharma Corporation, priority 2016, dated 2021).)
